Reference: ChEMBL document CHEMBL1201861, “Genomics of Drug Sensitity in Cancer screening data, Wellcome Trust Sanger Institute”
Structures can show the parent of a compound that is named as a salt.

How the values were obtained:
SKM-1 = experiment: SANGER: Inhibition of human SKM-1 cell growth in a cell viability assay.; assay type: functional, cell-based
ECC12 = experiment: cells; assay type: functional, cell-based; conditions: Homo sapiens
Description: SANGER: Inhibition of human ECC12 cell growth in a cell viability assay.

EW-12 = experiment: SANGER: Inhibition of human EW-12 cell growth in a cell viability assay.; assay type: functional, cell-based
NCI-H2107 = experiment: SANGER: Inhibition of human NCI-H2107 cell growth in a cell viability assay.; assay type: functional, cell-based
CP67-MEL = experiment: SANGER: Inhibition of human CP67-MEL cell growth in a cell viability assay.; assay type: functional, cell-based
KP-N-RT-BM-1 = experiment: SANGER: Inhibition of human KP-N-RT-BM-1 cell growth in a cell viability assay.; assay type: functional, cell-based
SNU-475 = experiment: cells; assay type: functional, cell-based, Homo sapiens
Description: SANGER: Inhibition of human SNU-475 cell growth in a cell viability assay.

MFE-296 = experiment: SANGER: Inhibition of human MFE-296 cell growth in a cell viability assay.; assay type: functional, cell-based
IPC-298 = experiment: SANGER: Inhibition of human IPC-298 cell growth in a cell viability assay.; assay type: functional, cell-based
Caov-3 cell line = experiment: cells; assay type: functional, cell-based, Homo sapiens;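 also: cell growth inhibition read out by a viability assay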
Description: SANGER: Inhibition of human Caov-3 cell growth in a cell viability assay.

C-4-II = experiment: SANGER: Inhibition of human C-4-II cell growth in a cell viability assay.; assay type: functional, cell-based
CCF-STTG1 = experiment: cells; assay type: functional, cell-based, Homo sapiens;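 also: growth inhibition of human CCF-STTG1 cells, determined with a cell viability read-out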
Description: SANGER: Inhibition of human CCF-STTG1 cell growth in a cell viability assay.

PLC-PRF-5 = experiment: cells; assay type: functional, cell-based, Homo sapiens;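 also: growth inhibition of human PLC-PRF-5 cells, read out with a viability assay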
Description: SANGER: Inhibition of human PLC-PRF-5 cell growth in a cell viability assay.

SNG-M = experiment: cells; assay type: functional, cell-based, Homo sapiens
Description: SANGER: Inhibition of human SNG-M cell growth in a cell viability assay.

MDA-MB-468 = experiment: cells; assay type: functional, cell-based, Homo sapiens
Description: SANGER: Inhibition of human MDA-MB-468 cell growth in a cell viability assay.

RT-4 = experiment: SANGER: Inhibition of human RT4 cell growth in a cell viability assay.; assay type: functional, cell-based
NCI-H1618 = experiment: cells; assay type: functional, cell-based, Homo sapiens;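 also: growth inhibition of human NCI-H1618 cells, measured by a cell viability assay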
Description: SANGER: Inhibition of human NCI-H1618 cell growth in a cell viability assay.

EW-7 = experiment: SANGER: Inhibition of human EW-7 cell growth in a cell viability assay.; assay type: functional, cell-based
DMS-53 = experiment: cells; assay type: functional, cell-based, Homo sapiens;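 also: cell viability assay measuring growth inhibition of human DMS-53 cells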
Description: SANGER: Inhibition of human DMS-53 cell growth in a cell viability assay.

Calu-1 = experiment: SANGER: Inhibition of human Calu-1 cell growth in a cell viability assay.; assay type: functional, cell-based
TT = experiment: cells; assay type: functional, cell-based, Homo sapiens
Description: SANGER: Inhibition of human TT cell growth in a cell viability assay.

H9 = experiment: cells; assay type: functional, cell-based, Homo sapiens
Description: SANGER: Inhibition of human H9 cell growth in a cell viability assay.

| Molecule | IC50 (SKM-1) [µM] | IC50 (EW-12) [µM] | IC50 (NCI-H2107) [µM] | IC50 (SNU-475; Homo sapiens, SNU-475) [µM] | IC50 (MFE-296; Homo sapiens, MFE-296) [nM] | IC50 (IPC-298; Homo sapiens, IPC-298) [nM] | IC50 (Caov-3 cell line; Homo sapiens, Caov-3) [nM] | IC50 (C-4-II; Homo sapiens, C-4-II) [µM] | IC50 (CCF-STTG1; Homo sapiens, CCF-STTG1) [µM] | IC50 (PLC-PRF-5; Homo sapiens, PLC-PRF-5) [nM] | IC50 (SNG-M; Homo sapiens, SNG-M) [nM] | IC50 (MDA-MB-468; Homo sapiens, MDA-MB-468) [nM] | IC50 (RT-4; Homo sapiens, RT-4) [nM] | IC50 (NCI-H1618; Homo sapiens, NCI-H1618) [nM] | IC50 (EW-7; Homo sapiens, EW-7) [µM] | IC50 (DMS-53; Homo sapiens, DMS-53) [nM] | IC50 (Calu-1; Homo sapiens, Calu-1) [nM] | IC50 (TT; Homo sapiens, TT) [µM] | also measured |
| --- | --- | --- | --- | --- | --- | --- | --- | --- | --- | --- | --- | --- | --- | --- | --- | --- | --- | --- | --- |
| COc1cc(N2CCN(C)CC2)ccc1Nc1ncc2c(n1)N(C)c1ccccc1C(=O)N2C | > 8 | > 8 | > 8 | – | – | – | – | – | – | – | – | – | – | – | – | – | – | – | IC50 (ECC12): > 8 µM |
| COc1cc(-c2nn([C@H]3CC[C@H](N4CCN(C(C)=O)CC4)CC3)c3ncnc(N)c23)ccc1NC(=O)c1cc2ccccc2n1C | > 5.12 | > 5.12 | > 5.12 | – | – | – | – | – | – | – | – | – | – | – | – | – | – | – | IC50 (CP67-MEL): > 5120 nM; IC50 (KP-N-RT-BM-1): > 5120 nM |
| Cc1cc([N+](=O)[O-])ccc1NS(=O)(=O)c1cc(Cl)ccc1Cl | – | – | – | > 32 | 4700 | 2690 | > 32000 | 6.37 | 12.8 | 1170 | 2770 | 1210 | > 32000 | > 32000 | > 32 | 1100 | 8640 | 9.13 | – |
| OCCCNc1cc(-c2ccnc(Nc3cccc(Cl)c3)n2)ccn1 | > 0.256 | > 0.256 | 0.135 | – | – | – | – | – | – | – | – | – | – | – | – | – | – | – | IC50 (CP67-MEL): 52 nM; IC50 (KP-N-RT-BM-1): 148 nM |
| Oc1ccc2ccccc2c1SSc1c(O)ccc2ccccc12 | – | – | – | > 32 | > 32000 | > 32000 | > 32000 | > 32 | > 32 | > 32000 | > 32000 | > 32000 | > 32000 | > 32000 | > 32 | > 32000 | > 32000 | > 32 | – |
| Cc1ccc(-c2c(C(=O)CCl)n(CCCO)c3ncnc(N)c23)cc1 | > 4 | > 4 | > 4 | – | – | – | – | – | – | – | – | – | – | – | – | – | – | – | IC50 (CP67-MEL): > 4000 nM; IC50 (KP-N-RT-BM-1): 2510 nM |
| C=C(c1ccc(C(=O)O)cc1)c1cc2c(cc1C)C(C)(C)CCC2(C)C [BEXAROTENE] | – | – | – | > 8 | > 8000 | > 8000 | > 8000 | > 8 | > 8 | > 8000 | > 8000 | > 8000 | > 8000 | > 8000 | > 8 | > 8000 | > 8000 | > 8 | – |
| CCC/C=C/C=C/C(=O)O[C@H]1/C(=C/C(=O)OC)C[C@H]2C[C@H]([C@@H](C)O)OC(=O)C[C@H](O)C[C@@H]3C[C@H](OC(C)=O)C(C)(C)[C@](O)(C[C@@H]4C/C(=C/C(=O)OC)C[C@H](/C=C/C(C)(C)[C@]1(O)O2)O4)O3 [BRYOSTATIN 1] | – | – | – | > 0.008 | > 8 | > 8 | > 8 | > 0.008 | > 0.008 | > 8 | > 8 | > 8 | > 8 | > 8 | > 0.008 | > 8 | > 8 | > 0.008 | – |
| COc1cccc2c1C(=O)c1c(O)c3c(c(O)c1C2=O)C[C@@](O)(C(=O)CO)C[C@@H]3O[C@H]1C[C@H](N)[C@H](O)[C@H](C)O1 [DOXORUBICIN] | – | – | – | > 1.02 | 70.5 | 196 | 406 | 0.473 | 0.0355 | 901 | 18.3 | 76.2 | > 1020 | 104 | 0.0306 | > 1020 | 73.6 | > 1.02 | – |
| C#Cc1cccc(Nc2ncnc3cc(OCCOC)c(OCCOC)cc23)c1 [ERLOTINIB] | > 2 | > 2 | > 2 | – | – | – | – | – | – | – | – | – | – | – | – | – | – | – | IC50 (ECC12): 0.0805 µM |
| Nc1ccn([C@@H]2O[C@H](CO)[C@@H](O)C2(F)F)c(=O)n1 [GEMCITABINE] | – | – | – | > 1.02 | 51.4 | 255 | 54.1 | 0.152 | 0.0314 | > 1020 | < 4 | 14.1 | > 1020 | 198 | < 0.004 | > 1020 | 220 | > 1.02 | – |
| O=C(O)c1ccc(-c2c[nH]c3ncc(-c4ccccc4)cc23)cc1C1CCCC1 [GSK-650394] | – | – | – | > 16 | 11300 | > 16000 | > 16000 | 13.9 | 12.6 | > 16000 | 1800 | > 16000 | > 16000 | > 16000 | > 16 | > 16000 | > 16000 | > 16 | – |
| COc1cc2ncn(-c3cc(OCc4ccccc4C(F)(F)F)c(C(N)=O)s3)c2cc1OC [GW843682X] | > 0.256 | > 0.256 | > 0.256 | – | – | – | – | – | – | – | – | – | – | – | – | – | – | – | IC50 (CP67-MEL): 116 nM; IC50 (KP-N-RT-BM-1): 131 nM |
| Nc1cccc2c1CN(C1CCC(=O)NC1=O)C2=O (configuration not stated) [LENALIDOMIDE] | – | – | – | – | – | – | – | – | – | – | – | – | – | – | – | – | – | – | IC50 (H9; Homo sapiens, H9): > 5 µM |
| CN(C)C(=N)NC(=N)N [METFORMIN] | – | – | – | – | – | – | – | – | – | – | – | – | – | – | – | – | – | – | IC50 (H9; Homo sapiens, H9): 7140 µM |
| Cc1cn(-c2cc(NC(=O)c3ccc(C)c(Nc4nccc(-c5cccnc5)n4)c3)cc(C(F)(F)F)c2)cn1 [NILOTINIB] | – | – | – | – | – | – | – | – | – | – | – | – | – | – | – | – | – | – | IC50 (H9; Homo sapiens, H9): > 2 µM |
| COC1=CC(c2cc3ccccc3[nH]2)=N/C1=C\c1[nH]c(C)cc1C [OBATOCLAX MESYLATE] | – | – | – | > 16 | 139 | < 62.5 | 1690 | 3.76 | 0.926 | 1150 | < 62.5 | 917 | 1600 | 2880 | < 0.0625 | 478 | 313 | > 16 | – |
| CC(=O)O[C@H]1C(=O)[C@@]2(C)[C@H]([C@H](OC(=O)c3ccccc3)[C@]3(O)C[C@H](OC(=O)[C@H](O)[C@@H](NC(=O)c4ccccc4)c4ccccc4)C(C)=C1C3(C)C)[C@]1(OC(C)=O)CO[C@@H]1C[C@@H]2O [PACLITAXEL] | > 0.102 | > 0.102 | > 0.102 | – | – | – | – | – | – | – | – | – | – | – | – | – | – | – | IC50 (CP67-MEL): 68.1 nM; IC50 (KP-N-RT-BM-1): > 102 nM |
| N[C@@H](CSC(c1ccccc1)(c1ccccc1)c1ccccc1)C(=O)O [S-TRITYL-L-CYSTEINE] | > 5.12 | > 5.12 | > 5.12 | – | – | – | – | – | – | – | – | – | – | – | – | – | – | – | IC50 (CP67-MEL): 2390 nM; IC50 (KP-N-RT-BM-1): > 5120 nM |
| CC[C@H](CO)Nc1nc(NCc2ccccc2)c2ncn(C(C)C)c2n1 [SELICICLIB] | > 16 | > 16 | > 16 | – | – | – | – | – | – | – | – | – | – | – | – | – | – | – | IC50 (ECC12): > 16 µM |
| CCN(CC)CCNC(=O)c1c(C)[nH]c(/C=C2\C(=O)Nc3ccc(F)cc32)c1C [SUNITINIB] | > 8 | > 8 | > 8 | – | – | – | – | – | – | – | – | – | – | – | – | – | – | – | IC50 (CP67-MEL): > 8000 nM; IC50 (KP-N-RT-BM-1): > 8000 nM |
| CO[C@H]1C[C@@H]2CC[C@@H](C)[C@@](O)(O2)C(=O)C(=O)N2CCCC[C@H]2C(=O)O[C@H]([C@H](C)C[C@@H]2CC[C@@H](OC(=O)C(C)(CO)CO)[C@H](OC)C2)CC(=O)[C@H](C)/C=C(\C)[C@@H](O)[C@@H](OC)C(=O)[C@H](C)C[C@H](C)/C=C/C=C/C=C/1C [TEMSIROLIMUS] | – | – | – | – | – | – | – | – | – | – | – | – | – | – | – | – | – | – | IC50 (H9; Homo sapiens, H9): 0.00488 µM |
| BLEOMYCIN | – | – | – | – | – | – | – | – | – | – | – | – | – | – | – | – | – | – | IC50 (SNU-475; snu-475): 67.5 µM; IC50 (MFE-296; mfe-296): 153 nM; IC50 (IPC-298; ipc-298): 2210 nM; IC50 (Caov-3 cell line; caov-3): 20500 nM; IC50 (C-4-II; c-4-ii): 0.381 µM; IC50 (CCF-STTG1; ccf-sttg1): 4.56 µM; IC50 (PLC-PRF-5; plc-prf-5): 281000 nM; IC50 (SNG-M; sng-m): 831 nM; IC50 (MDA-MB-468; mda-mb-468): 67600 nM; IC50 (RT-4; rt-4): 5.86 nM; IC50 (NCI-H1618; nci-h1618): 5990 nM; IC50 (EW-7; ew-7): 3.06 µM; IC50 (DMS-53; dms-53): 319000 nM; IC50 (Calu-1; calu-1): 5140 nM; IC50 (TT; tt): 59.2 µM |
| CISPLATIN | – | – | – | – | – | – | – | – | – | – | – | – | – | – | – | – | – | – | IC50 (H9; h9): 3.65 µM |
